Measurements reported in US20200155481A1, “INTRAMUSCULAR ATOVAQUONE FOR MALARIA PROPHYLAXIS” (THE JOHNS HOPKINS UNIVERSITY, priority 2017, published 2020).

Experiments:
[1] = cited from earlier work
[2] = tested on: P. berghei ANKA sporozoites; test: murine Plasmodium berghei sporozoite challenge model (prophylaxis efficacy); format: in vivo; conditions: intramuscular, dose-dependent; mice; FIG. 2
Experimental: Four- to six-day old Anopheles stephensi adult mosquitoes fasted for 6 h were fed on Swiss Webster mice infected with P. berghei (ANKA 2.34 strain). Fed mosquitoes were maintained for 18 d (19° C., 80% relative humidity), when salivary glands were harvested into RPMI medium and disrupted by several passages through a 0.5 in 28-gauge needle to release sporozoites. Parasites were counted by hemocytometer and diluted to 25,000 mL^−1 RPMI. C57BL6 mice were challenged by intravenous infusion of 5,000 sporozoites in 200 μL RPMI.
(§1) All dosing materials were constituted just before use. Mepron suspension (150 mg/mL atovaquone) was the starting material. Pluronic F-68 (10%) was used to dilute Mepron to required dosing concentration (≤100 mg/mL), or as vehicle control. For the washed drug preparation, atovaquone was pelleted from diluted Mepron (50 mg/mL, 13,000×g, 10 min) and the supernatant was replaced with equal volume 0.9% NaCl. Washing was repeated three times prior to final resuspension of excipient-depleted atovaquone at 50 mg/mL in 0.9% NaCl for dosing. C57BL6 male mice (˜20 g; 3-5 per group) were injected intramuscularly (biceps femoris; 23-gauge needle, 100 μl Hamilton syringe) with diluted or washed Mepron (40 μl total volume, 20 μl per limb). Oral Mepron was administered by gavage. […]

in vivo = test: in vivo; parameters: species or system mice; conditions: male, C57BL6, mouse, im, 200 mg/kg
Experimental: as §1, with “gavage. At predetermined post-dose intervals, animals were challenged with P. berghei ANKA by infusion of 5,000 sporozoites into a tail vein. Starting 4 d post-challenge then weekly thereafter for 42 d, tail snip blood samples were examined for parasites via Giemsa-stained thin smears. Each experiment included an untreated cohort to validate the challenge. Efficacy outcomes were binary. The appearance of parasitemia in any animal in a cohort was designated a dosing failure.” for “gavage.”

O=C1C(O)=C([C@H]2CC[C@H](c3ccc(Cl)cc3)CC2)C(=O)c2ccccc21 [atovaquone]
solubility in water [1]: practically insoluble | successful malaria prophylaxis (parasite-free), days post-challenge [2]: up to 42 days | half-life (in vivo): 182 h
